Results as given in patent publication EP4692094A1 (Beijing Konruns Pharmaceutical Co., Ltd., priority 2023, dated 2024).
Read-outs that look alike come from different tables or passages of the source.

Tests used:
[1] = In-vivo pharmacokinetic study in beagle dogs; set-up: species or system male beagle dogs; conditions: dog, plasma, po, intragastric administration
Procedure: 1.1 Instrument: high-performance liquid chromatograph: SHIMADZU LC-30AD; mass spectrum: AB SCIEX mass spectrometer Triple Quad 5500; all measured data were calculated and processed using Microsoft Excel, and relevant pharmacokinetic parameters were calculated using WinNonlin software. […] Chromatographic column: Agilent EC-C18 2.7 µm (50 × 2.1 mm); column temperature: 40 °C; mobile phase A: water (0.1% formic acid); mobile phase B: acetonitrile; flow rate: 0.60 mL/min; gradient elution; elution gradient: 0.30 min: 5% B; 1.90 min: 95% B; 2.20 min: 95% B; 2.21 min: 5% B; 2.50 min: stop. Sample injection amount: 10 µL.
1.2 Animals: 3 male beagle dogs were used. The body weight range was 8-15 kg. The beagle dogs were fasted 12 h before administration and 4 h after administration, and given ad libitum access to water during the assay.
1.3 Vehicle: 0.5% HPMC (hydroxypropyl methylcellulose) + 0.4% Tween80 + 99.1% water.
After the intragastric administration, blood samples were taken at 0.25 h, 0.5 h, 1 h, 2 h, 4 h, 6 h, 8 h, 10 h, 12 h, 24 h, and 48 h. The blood collection mode is as follows: venipuncture was used, EDTA-K2 was used as an anticoagulation agent, the collected blood sample was transferred into a microcentrifuge tube containing the anticoagulation agent, and the tube was centrifuged at 4 °C and 2000 g for 10 min to separate the plasma. All plasma samples collected were stored at -75±15 °C until analysis.
1.4 Plasma sample pretreatment: 50 µL of the plasma sample was taken, and 200 µL of an internal standard solution prepared with acetonitrile was added for precipitation; subsequently, the sample was vortexed for 1 min and mixed homogenously; the precipitated sample was centrifuged at 4 °C and 3900 rpm for 15 min; the supernatant was pipetted, and water was added for 3-fold dilution; 10 µL of the sample was injected; and quantitative analysis was performed by adopting a liquid chromatography-mass spectrometry technology.
All measured data were collected and processed by the relevant software, and pharmacokinetic parameters were calculated using Winnonlin software. Pharmacokinetic parameters of some compounds in the examples in beagle dogs

[2] = tested on: human breast cancer cell line ZR-75-1; test: Assay for cell growth inhibitory activity (3D hydrogel culture, CCK-8); format: cell-based; conditions: 96 h; for viability at 0.0001 µM: ZR-75-1, 0.1 nM, read-out: Cell survival rate at example drug concentration 0.1 nM; for viability at 0.001 µM: ZR-75-1, 1 nM, read-out: Cell survival rate at example drug concentration 1 nM; for viability at 0.01 µM: ZR-75-1, 10 nM, read-out: Cell survival rate at example drug concentration 10 nM; for viability at 0.1 µM: ZR-75-1, 100 nM, read-out: Cell survival rate at example drug concentration 100 nM; for viability at 1 µM: ZR-75-1, 1000 nM, read-out: Cell survival rate at example drug concentration 1000 nM
Procedure: The human breast cancer cell line ZR-75-1 (1 × 10^^6 cells per cell culture dish with 100-mm diameter) was cultured in a 1640 culture medium, and 1% double antibiotics (streptomycin and penicillin), 10% fetal bovine serum (FBS), and 1% glutamine (Glumax) were added simultaneously. The cell culture dish was placed at 37 °C with 5% CO2 for 2 days for culture until the cell confluence reached 80%-90% to give cells in the logarithmic growth phase.
• 1) The example compounds were each dissolved in dimethylsulfoxide to give solutions at a concentration of 10 mmol/L, and the solutions were diluted to 250 µmol/L in 10-fold gradient for 5 concentrations, i.e., 0.2 nmol/L, 2 nmol/L, 20 nmol/L, 200 nmol/L, and 2000 nmol/L. • 2) Blank control wells were prepared by adding 0.1% dimethylsulfoxide to the cultured cells, and were used as high-reading control wells; cell-free 3D hydrogel was used as background wells. • 3) The cultured cells were separately added to the compounds in the examples at 0.2 nmol/L, 2 nmol/L, 20 nmol/L, 200 nmol/L, and 2000 nmol/L as test wells, with the same volumes as the original culture solutions.
• 1) The cells were collected, resuspended in a PBS balanced salt solution, and counted; and the cells were mixed with the 3D hydrogel stock solution and prepared into hydrogel cell suspensions with proper density. • 2) The 3D hydrogel cell suspension (5 × 10^^4 cells) was added to each well in 96-well cell culture plates with low surface adsorption, and the plates were incubated at 37 °C with 5% CO2 for 20 min. • 3) The complete culture medium containing the compound prepared in 1.2 with an equal volume to that of the cell suspension in step 2 was added to the 96-well cell culture plate. • 4) The cells were cultured at 37 °C in a 5% CO2 incubator for 96 h.
• 1) The complete culture medium in the upper layer above the hydrogel was pipetted from each well of the 96-well cell culture plate with a vacuum pump or a manual pipette with careful processing to avoid breaking the hydrogel lower layer. • 2) The complete culture medium containing the CCK-8 substrate with an equal volume to that of the original hydrogel was added to each well. • 3) The plate was cultured at 37 °C with 5% CO2 for 1 h. • 4) The 96-well cell culture plate was placed in a microplate reader, and the values of A450 and A630 were separately detected.
Data analysis: The relative inhibitory level was analyzed by using Excel software, and the survival rates of cells under different compound culture conditions were obtained; [formula]
High-reading control well: cells + dimethylsulfoxide; background well: cell-free hydrogel. Table 7. Cell proliferation inhibitory activity of some of example compounds

[3] = male, 1 mg/kg, read-out: AUC0-48h

| Structure (SMILES) | half-life ([1]; male, beagle, 1 mg/kg) [h] | AUC(0-inf) ([1]; male, 1 mg/kg) [ng·h/mL] | Cmax ([1]; male, 1 mg/kg) [ng/mL] | Tmax ([1]; male, 1 mg/kg) [h] | AUC(0-t) [1, 3] [ng·h/mL] | viability at 0.0001 µM [2] [%] | viability at 0.001 µM [2] [%] | viability at 0.01 µM [2] [%] | viability at 0.1 µM [2] [%] | viability at 1 µM [2] [%] | AUC(0-inf) ([1]; 1 mg/kg) [ng·h/mL] | Cmax ([1]; 1 mg/kg) [ng/mL] | Tmax ([1]; 1 mg/kg) [h] | half-life ([1]; 1 mg/kg) [h] | AUC(0-t) at 48 h ([1]; 1 mg/kg, read-out: AUC0-48h) [ng·h/mL] | half-life ([1]; male, beagle, 0.6 mg/kg) [h] | AUC(0-inf) ([1]; male, 0.6 mg/kg) [ng·h/mL] | Cmax ([1]; male, 0.6 mg/kg) [ng/mL] | Tmax ([1]; male, 0.6 mg/kg) [h] | AUC(0-t) ([1]; male, 0.6 mg/kg, read-out: AUC0-48h) [ng·h/mL] |
| --- | --- | --- | --- | --- | --- | --- | --- | --- | --- | --- | --- | --- | --- | --- | --- | --- | --- | --- | --- | --- |
| COc1ccc2ccoc2c1S(=O)(=O)Nc1noc2cc(Cn3cccn3)nc(OC)c12 [Example 10, N-(6-((1H-Pyrazol-1-yl)methyl)-4-methoxyisoxazolo[4,5-c]pyridin-3-yl)-6-methoxybenzofuran-7-sulfonamide] | ≤ 15 | 47500 | 6250 | 0.83 | 46700 | 62 | 45 | 39 | 33 | 29 | – | – | – | – | – | – | – | – | – | – |
| COc1nc(Cn2cccn2)cc2onc(NS(=O)(=O)c3cccc4ccoc34)c12 [Example 5, N-(6-((1H-Pyrazol-1-yl)methyl)-4-methoxyisoxazolo[4,5-c]pyridin-3-yl)benzofuran-7-sulfonamide] | – | – | – | – | – | 80 | 85 | 69 | 54 | 35 | – | – | – | – | – | – | – | – | – | – |
| COc1cc2c(cc1S(=O)(=O)Nc1noc3cc(Cn4cccn4)nc(OC)c13)CCCO2 [Example 76, N-(6-((1H-Pyrazol-1-yl)methyl)-4-methoxyisoxazolo[4,5-c]pyridin-3-yl)-7-methoxy-3,4-dihydro-1H-benzopyran-6-sulfonamide] | – | – | – | – | – | – | – | – | – | – | 749000 | 14000 | 2 | 45.4 | 225000 | – | – | – | – | – |
| COc1nc(Cn2cccn2)cc2onc(NS(=O)(=O)c3cccc4c3OCCO4)c12 [Example 4, N-(6-((1H-Pyrazol-1-yl)methyl)-4-methoxyisoxazolo[4,5-c]pyridin-3-yl)-2,3-dihydrobenzo[b][1,4]dioxine-5-sulfonamide] | – | – | – | – | – | 75 | 61 | 41 | 37 | 29 | – | – | – | – | – | – | – | – | – | – |
| COc1cc2c(cc1S(=O)(=O)Nc1noc3cc(Cn4cccn4)nc(OC)c13)CCCC2 [Example 2, N-(6-((1H-Pyrazol-1-yl)methyl)-4-methoxyisoxazolo[4,5-c]pyridin-3-yl)-3-methoxy-5,6,7,8-tetrahydronaphthalene-2-sulfonamide] | – | – | – | – | – | 63 | 51 | 43 | 43 | 40 | – | – | – | – | – | 173 | 379000 | 1800 | 4 | 66500 |
| COc1cc2c(cc1S(=O)(=O)Nc1noc3cc(Cn4cccn4)nc(OC)c13)OCC2 [Example 59, N-(6-((1H-Pyrazol-1-yl)methyl)-4-methoxyisoxazolo[4,5-c]pyridin-3-yl)-5-methoxy-2,3-dihydrobenzofuran-6-sulfonamide] | ≤ 15 | 55900 | 8380 | 0.67 | 55500 | – | – | – | – | – | – | – | – | – | – | – | – | – | – | – |
| COc1ccc2c(c1S(=O)(=O)Nc1noc3cc(Cn4cccn4)nc(OC)c13)OCC2 [Example 9, N-(6-((1H-Pyrazol-1-yl)methyl)-4-methoxyisoxazolo[4,5-c]pyridin-3-yl)-6-methoxy-2,3-dihydrobenzofuran-7-sulfonamide] | ≤ 15 | 122000 | 9230 | 1.33 | 114000 | 63 | 48 | 41 | 38 | 32 | – | – | – | – | – | – | – | – | – | – |
